Where “and” joins values, the source holds several entries; their conditions need not be identical. Identical values can stand only once. Toxic doses and inconclusive results are not listed.
Test system: L1210 leukemia ip in BDF1 mice, survival T/C
Experiment: NCI In Vivo Anticancer Drug Screen. Data for tumor model L1210 Leukemia (intraperitoneal) in B6D2F1 (BDF1) mice
Details: endpoint: mean survival time, higher = longer survival
Summary of the method: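 Survival endpoint. Drug-treated group vs vehicle group, expressed as T divided by C. Tumor passaged by transplantation.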

[1] = dose: 12.5 mg/kg/injection, schedule: Q01DX001 (ip), vehicle: saline
[2] = dose: 25.0 mg/kg/injection, schedule: Q01DX001 (ip), vehicle: saline
[3] = dose: 100.0 mg/kg/injection, schedule: Q01DX009 (ip), vehicle: saline
[4] = dose: 200.0 mg/kg/injection, schedule: Q01DX009 (ip), vehicle: saline
[5] = dose: 100.0 mg/kg/injection, schedule: Q01DX001 (ip), vehicle: saline
[6] = dose: 100.0 mg/kg/injection, schedule: Q04DX003 (ip), vehicle: saline
[7] = dose: 50.0 mg/kg/injection, schedule: Q01DX001 (ip), vehicle: saline
[8] = dose: 100.0 mg/kg/injection, schedule: Q01DX001 (ip), vehicle: carboxymethylcellulose (CMC)

`CN(CCCCN(C)CCOS(C)(=O)=O)CCOS(C)(=O)=O` was tested, and the T/C (dose: 1.7 mg/kg/injection, schedule: Q01DX015 (ip), vehicle: saline) was 177 % of control, the T/C (dose: 8.3 mg/kg/injection, schedule: Q01DX001 (ip), vehicle: saline) was 155 % of control and the T/C [1] was 160 % of control. The T/C (dose: 18.7 mg/kg/injection, schedule: Q01DX001 (ip), vehicle: saline) was 155 % of control and the T/C [2] was 116 % of control.
`CC(C)(O)C#CC(C)(C)O` was tested, and the T/C [3] was 115 % of control, the T/C [4] was 110 % of control and the T/C (dose: 400.0 mg/kg/injection, schedule: Q01DX009 (ip), vehicle: saline) was 110 % of control.
For `O=S(=O)(OCC1CC2C=CC1C2)c1ccc(Br)cc1` (stereo not drawn), the T/C (dose: 100.0 mg/kg/injection, schedule: Q04DX003 (ip), vehicle: other) was 86 % of control, the T/C (dose: 200.0 mg/kg/injection, schedule: Q04DX003 (ip), vehicle: other) was 89 % of control and the T/C (dose: 400.0 mg/kg/injection, schedule: Q04DX003 (ip), vehicle: other) was 89 % of control.
For `CC(=O)c1cc(-c2ccc(Cl)c(Cl)c2)nc2c(Cl)cc(Cl)cc12`, the T/C [5] was 104 % of control, the T/C (dose: 200.0 mg/kg/injection, schedule: Q01DX001 (ip), vehicle: saline) was 103 % of control and the T/C (dose: 400.0 mg/kg/injection, schedule: Q01DX001 (ip), vehicle: saline) was 103 % of control.
For `c1ccc(CN2CCC(N3CCCC3)CC2)cc1`, the T/C (dose: 50.0 mg/kg/injection, schedule: Q01DX009 (ip), vehicle: saline) was 101 % of control, the T/C [3] was 95 % of control and the T/C [6] was 109 % of control. For the same molecule, the T/C [4] was 94 % of control and the T/C (dose: 200.0 mg/kg/injection, schedule: Q04DX003 (ip), vehicle: saline) was 101 % of control.
`CC(C)N(C(=O)C1C2C=CC(C2)C1C(=O)N(C(C)C)C(C)C)C(C)C` (stereo not drawn) was tested, and the T/C (dose: 25.0 mg/kg/injection, schedule: Q04DX003 (ip), vehicle: saline with Tween-80) was 98 % of control, the T/C (dose: 50.0 mg/kg/injection, schedule: Q04DX003 (ip), vehicle: saline with Tween-80) was 98 % of control and the T/C (dose: 100.0 mg/kg/injection, schedule: Q04DX003 (ip), vehicle: saline with Tween-80) was 106 % of control and 107 % of control.
`Cc1ccc(S(=O)(=O)OC2CC3c4ccccc4C2c2cccc[n+]23)cc1` (stereo not drawn) was tested, and the T/C [1] was 103 % of control, the T/C [2] was 115 % of control and the T/C (dose: 25.0 mg/kg/injection, schedule: Q04DX003 (ip), vehicle: saline) was 99 % of control. For the same molecule, the T/C [7] was 110 % of control, the T/C (dose: 50.0 mg/kg/injection, schedule: Q04DX003 (ip), vehicle: saline) was 94 % of control and the T/C [5] was 105 % of control.
`CCCCCCCCOC(=O)COc1cccc(C)c1` was tested, and the T/C (dose: 100.0 mg/kg/injection, schedule: Q04DX002 (ip), vehicle: saline with Tween-80) was 103 % of control, the T/C (dose: 200.0 mg/kg/injection, schedule: Q04DX002 (ip), vehicle: saline with Tween-80) was 100 % of control and the T/C (dose: 400.0 mg/kg/injection, schedule: Q04DX002 (ip), vehicle: saline with Tween-80) was 100 % of control.
For `CCCNCCCCCCNCCC`, the T/C [6] was 98 % of control.
With `CC1(C)C(C)(C)C12C=CC=C2` the T/C [2] was 104 % of control, the T/C [7] was 102 % of control and the T/C [5] was 101 % of control.
`Nc1nc(N)nc(CCCCCCc2nc(N)nc(N)n2)n1` was tested, and the T/C (dose: 50.0 mg/kg/injection, schedule: Q01DX001 (ip), vehicle: carboxymethylcellulose (CMC)) was 88 % of control, the T/C [8] was 88 % of control and the T/C (dose: 200.0 mg/kg/injection, schedule: Q01DX001 (ip), vehicle: carboxymethylcellulose (CMC)) was 98 % of control.
For `CCOC(=O)C(Cc1ccc(N(CCCl)CCCl)cc1)NP1(=O)NCCCO1` (stereo not drawn), the T/C (dose: 2.0 mg/kg/injection, schedule: Q01DX015 (ip), vehicle: carboxymethylcellulose (CMC)) was 123 % of control, the T/C (dose: 14.0 mg/kg/injection, schedule: Q01DX015 (ip), vehicle: carboxymethylcellulose (CMC)) was 92 % of control and the T/C (dose: 18.0 mg/kg/injection, schedule: Q01DX015 (ip), vehicle: other) was 167 % of control. The T/C (dose: 28.14 mg/kg/injection, schedule: Q01DX015 (ip), vehicle: carboxymethylcellulose (CMC)) was 117 % of control, the T/C (dose: 30.0 mg/kg/injection, schedule: Q01DX015 (ip), vehicle: other) was 156 % of control and the T/C (dose: 48.0 mg/kg/injection, schedule: Q01DX015 (ip), vehicle: carboxymethylcellulose (CMC)) was 94 % of control. The T/C (dose: 50.0 mg/kg/injection, schedule: Q01DX015 (ip), vehicle: other) was 109 % of control, the T/C [8] was 111 % of control and the T/C (dose: 100.0 mg/kg/injection, schedule: Q01DX001 (ip), vehicle: other) was 160 % of control. The T/C (dose: 400.0 mg/kg/injection, schedule: Q01DX001 (ip), vehicle: carboxymethylcellulose (CMC)) was 115 % of control.

Reference: PubChem BioAssay AID248 (DTP/NCI, 2004)
